Measured values taken from US10544113B2 (priority 2016, dated 2020).
Read-outs that look alike come from different tables or passages of the source.

Target: mu-opioid receptor (MOR) (Homo sapiens (Human), UniProt P35372)
Assay: cell-based
Details: for AUC: AUC of [Ca2+]i fluorescence, CHO-K1/MOR/Gα15 cells
Procedure: In an exemplary in vitro screening method for identifying antagonist-to-agonist allosteric modifiers of a MOR, cells that express a MOR are treated with a test compound and a MOR antagonist in a cellular calcium fluorescent assay and fluorescence intensity is then measured to determine whether the MOR is activated. A test compound is identified as an antagonist-to-agonist allosteric modifier of the MOR if the MOR is activated.
EC50 herein refers to the concentration of a compound that induces a response halfway between the baseline and the maximum after a specified exposure time. AUC refers to the area under the response curve, an indication of the compound's capability of activating a MOR when combined with a MOR antagonist.
Human embryonic kidney 293 (HEK-293) cells constitutively expressing MOR (HEK-MOR) and DOR (HEK-DOR) (kindly provided by Dr. Ping-Yee Law, University of Minnesota, USA) were cultured in high-glucose Dulbecco's modified Eagle's medium (DMEM, GIBCO) supplemented with 400 μg/mL G418 (Sigma), 2 mM L-glutamine and P/S/F (100 units/mL penicillin, 100 μg/mL streptomycin, 10% fetal bovine serum). Chinese hamster ovary (CHO)-K1 cells, stably expressing hMOR and Gα15 (CHO-K1/MOR/Gα15), were cultured in F12 medium (GIBCO) supplemented with 10 μg/mL Hygromycin B (Invivogen), 20 μg/mL Zeocin (Invivogen) P/S/F (100 units/mL penicillin, 100 μg/mL streptomycin, 10% fetal bovine serum). The cultures were incubated at 37° C. in a humidified 5% CO2 incubator.
One day before the assay, CORNING® black with clear flat bottom 96-well assay plates were coated with a 0.1 mg/mL Poly-L-Lysine solution. CHO-K1/MOR/Gα15 cells were suspended in the F12 medium and plated at a density of ˜8×10^4 cells/well in 200 μL medium. Cells were incubated in a humidified atmosphere of 10% CO2 at 37° C. overnight so as to reach an 80-90% confluent cell monolayer before assay. At the day of assay, 150 μL medium/well was removed from plate. To each well, 50 μL FLIPR® calcium assay reagent dissolved in 1× assay buffer (HBSS: KCl 5 mM, KH2PO4 0.3 mM, NaCl 138 mM, NaHCO3 4 mM, Na2HPO4 0.3 mM, d-glucose 5.6 mM, with additional 20 mM HEPES and 13 mM CaCl2, pH 7.4), with 2.5 mM probenecid was added and the plate was incubated at 37° C. for 1 h. Compounds and other reagents were dissolved in the assay buffer. Using a FlexStationIII (Molecular Devices Corp.), the [Ca^2+]i fluorescence increases after robotic injections of compounds or other reagents were monitored every 1.52 s interval with excitation wavelength at 485 nm and with emission wavelength at 525 nm. The [Ca^2+]i fluorescence was measured up to 90 s after agonist injection.
A CHO-K1 cell line, expressing a MOR and Gα15 (GenScript), was used to set up a sensitive high-throughput screen (HTS) system. In a FLIPR® calcium assay using CHO-K1/MOR/Gα15 cells, activation of MOR elicits an intracellular calcium release leading to an increase in the relative fluorescence units (FRU). […] The HTS was performed in the absence or presence of an opioid antagonist, naloxone (25 nM), to identify antagonist to agonist allosteric modifiers (AAM).
A CHO-K1 cell line, expressing a MOR and Gα15 (GenScript), was used to set up a sensitive assay system for detecting μ-opioid receptor activation. […] The assay was performed in the presence of an opioid antagonist, i.e., naloxone (25 nM), naltrexone (20 nM), samidorphan (10 nM), naloxonazine dihydrochloride (20 nM), β-funaltrexamine hydrochloride (20 nM), cyprodime hydrochloride (500 nM), or nalmefene (20 nM), in combination with compound 58, an antagonist to agonist allosteric modifier (AAM), to identify activation of the μ-opioid receptor.

[1] = combined with a MOR antagonist, read-out: FLIPR Ca^2+ EC50
[2] = EC50, CHO-K1/MOR/Gα15 cells, combined with a MOR antagonist

Chain of mu-opioid receptor (MOR) (P35372 whole entry): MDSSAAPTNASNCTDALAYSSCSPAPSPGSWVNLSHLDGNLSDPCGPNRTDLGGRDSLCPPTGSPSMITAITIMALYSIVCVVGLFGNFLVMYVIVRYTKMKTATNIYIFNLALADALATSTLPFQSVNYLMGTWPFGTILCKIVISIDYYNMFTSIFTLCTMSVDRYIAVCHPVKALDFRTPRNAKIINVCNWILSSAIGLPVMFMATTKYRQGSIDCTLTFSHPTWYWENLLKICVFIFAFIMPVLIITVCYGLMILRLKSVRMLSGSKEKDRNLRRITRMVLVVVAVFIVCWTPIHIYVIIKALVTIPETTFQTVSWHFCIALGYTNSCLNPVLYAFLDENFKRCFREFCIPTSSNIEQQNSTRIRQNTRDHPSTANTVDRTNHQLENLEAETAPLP

Row | SMILES | FLIPR Ca^2+ AUC (combined with a MOR antagonist) | EC50 [1] [µM] | AUC (combined with a MOR antagonist) | EC50 [2] [µM] | EC50 (FLIPR Ca^2+ EC50, combined with a MOR antagonist) [µM]
1 | Cc1cc(C(=O)NS(=O)(=O)Cc2ccccc2)ccc1N1C(=O)CSC1c1ccc(F)cc1 (centres unmarked) [Example 176] | 10601 | 2 |  |  | 
2 | COCCCOC(=O)c1ccc(N2C(=O)CSC2c2ccc(F)cc2)c(C)c1 (centres unmarked) [Example 267] | 15960 | 6.4 |  |  | 
3 | Cc1noc(N2C(=O)CSC2c2ccc(F)cc2)c1C (centres unmarked) [Example 395] | 7107 | 12 | more than 5000 |  | 
4 | Cc1cc(C2SCC(=O)N2c2ccc(C(=O)O)cc2C)ccc1F (centres unmarked) [Example 68] | 7951 | 6.4 | more than 5000 | < 10 | 
5 | Cc1cc(C(=O)OCOC(=O)OC(C)C)ccc1N1C(=O)CSC1c1ccc(F)cc1 (centres unmarked) [Example 314] |  |  |  | < 10 | 
6 | Cc1ccc(F)cc1N1C(=O)CSC1c1cc(F)cc(F)c1 (centres unmarked) [Example 122] | 7010 | 3.6 | more than 5000 |  | 
7 | CC(=O)COC(=O)c1ccc(N2C(=O)CSC2c2ccc(F)cc2)c(C)c1 (centres unmarked) [Example 268] | 12787 | 3.8 |  |  | 
8 | CCOC(=O)c1ccc(N2C(=O)CSC2c2ccc(F)cc2)c(CC)c1 (centres unmarked) [Example 156] | 11998 | 6.2 | more than 5000 | < 10 | 
9 | CCCCS(=O)(=O)NC(=O)c1ccc(N2C(=O)CSC2c2ccc(F)cc2)c(C)c1 (centres unmarked) [Example 163] | 11389 | 1.2 | more than 5000 | < 10 | 
10 | CSCCOC(=O)c1ccc(N2C(=O)CSC2c2ccc(F)cc2)c(C)c1 (centres unmarked) [Example 270] |  |  |  | < 10 | 
11 | Cc1cc(C(=O)NS(=O)(=O)c2cccc(F)c2)ccc1N1C(=O)CSC1c1ccc(F)cc1 (centres unmarked) [Example 194] | 19019 | 0.2 | more than 5000 | < 10 | 
12 | Cc1cc(C(=O)NS(=O)(=O)CC(C)C)ccc1N1C(=O)CSC1c1ccc(F)cc1 (centres unmarked) [Example 167] | 9905 | 3.4 | more than 5000 | < 10 | 
13 | Cc1cc(C(N)=O)ccc1N1C(=O)CSC1c1ccc(F)cc1 (centres unmarked) [Example 329] | 13749 | 1.7 | more than 5000 | < 10 | 
14 | [2H]c1c([2H])c(C2SCC(=O)N2c2ccc(C(=O)OCC)cc2C)c([2H])c([2H])c1F (centres unmarked) [Example 580, Ethyl 4-{2-[4-fluoro-2,3,5,6-d4-phenyl]-4-oxo-1,3-thiazolidin-3-yl}-3-methylbenzoate] | 14441 |  |  |  | 4.26
15 | Cc1cc(C(=O)N2CC(O)C2)ccc1N1C(=O)CSC1c1ccc(F)cc1 (centres unmarked) [Example 354] | 14863 | 3.6 |  |  | 
16 | Cc1ccc(S(=O)(=O)NC(=O)c2ccc(N3C(=O)CSC3c3ccc(F)cc3)c(C)c2)cc1 (centres unmarked) [Example 185] | 18048 | 0.6 |  |  | 
17 | O=C(O)c1ccc(N2C(=O)CSC2c2ccc(F)cc2)c(Cl)c1 (centres unmarked) [Example 44] |  |  |  | < 10 | 
18 | Cc1cc(C(=O)N(C)C)ccc1N1C(=O)CSC1c1ccc(F)cc1 (centres unmarked) [Example 332] |  |  |  | < 10 | 
19 | CCN(CC)CCNC(=O)c1ccc(N2C(=O)CSC2c2ccc(F)cc2)c(C)c1 (centres unmarked) [Example 341] | 9983 | 3.3 |  |  | 
20 | Cc1cc(C(=O)OC(C)CNC(=O)c2cccnc2)ccc1N1C(=O)CSC1c1ccc(F)cc1 (centres unmarked) [Example 326] |  |  |  | < 10 | 
21 | COc1ccc(S(=O)(=O)NC(=O)c2ccc(N3C(=O)CSC3c3ccc(F)cc3)c(C)c2)cc1 (centres unmarked) [Example 188] | 21983 | 0.7 |  |  | 
22 | COc1ccc(C2SCC(=O)N2c2ccc(C(=O)O)cc2C)cc1 (centres unmarked) [Example 78] | 9368 | 6 | more than 5000 | < 10 | 
23 | Cc1cc(C)cc(CS(=O)(=O)NC(=O)c2ccc(N3C(=O)CSC3c3ccc(F)cc3)c(C)c2)c1 (centres unmarked) [Example 179] | 14442 | 1.1 | more than 5000 | < 10 | 
